From patent publication US20180228722A1, “UNIT DOSE PACKAGES, COMPOSITIONS, AND TREATMENT REGIMENS TO DELIVER PRO-[…] S[…] KERATIN SURFACES” (ELC Management LLC, priority 2015, published 2018)

Legend:
human neutrophils [1] = assay: Release of Inflammatory Metabolites (PGE2, LTB4) and Inflammatory Metabolite Marker (5-HETE) from PMA/A23187-stimulated neutrophils, LC-MS/MS of supernatants; format: cell-based; settings: for decrease in Inflammatory Metabolites and Inflammatory Metabolite Markers (aggregate): vs control cells exposed to inflammation precipitating condition; for net decrease in cellular concentration of Inflammatory Metabolites and Inflammatory Metabolite Markers (aggregate): vs control cells subjected only to inflammation precipitating condition; for decrease in cellular concentration of 5-HETE / decrease in cellular concentration of LTB4 / decrease in cellular concentration of PGE2: vs PMA/A23187 control
Method: (§1) Ingredients were tested to assess the ability to promote Pro-Resolution Pathway Stimulators in human neutrophils. The following Inflammatory Metabolites were measured: PGE2 and LTB4. The Inflammatory Metabolite Marker, 5-HETE, was measured. Also measured were the Pro-Resolving Lipid Mediator Markers 15-HETE, 12-HETE, 14-HDOHE, 18-HEPE, and 17-HDOHE. PGE2, LTB4, and 5-HETE are indicators of inflammation. Increases in cellular secretion of PGE2, LTB4, or 5-HETE are seen in response to inflammation precipitating conditions. Active ingredients that cause a reduction in cellular concentration of PGE2, LTB4, or 5-HETE are anti-inflammatory in nature. Cellular secretion of Pro-Resolving Lipid Mediators occurs in the inflammation resolution phase. Active ingredients that stimulate cellular secretion of Pro-Resolving Lipid Mediators (as measured by measuring Pro-Resolving Lipid Mediator Markers) help to promote resolution of inflammation.
(§2) Then, the inflammatory response was initiated by adding an inflammation precipitating ingredient, in particular PMA/[…] which is a mixture of 5-(methylamino)-2-({2R,3R,6S,8S,9R,11R)-3,9,11-trimethyl-8-[(1S)-1-methyl-2-oxo-2-(1H-pyrrol-2-yl)ethyl]-1,7-dioxaspiro[5.5]undec-2-yl}methyl)-1,3-benzoxazole-4-carboxylic acid and PMA (phorbol myristate acetate), at a concentration of 0.05 μm and 1 μm respectively to each well. After one hour the supernatants were collected and stored at −80° C. until assayed.
(§3) Cell supernatants were assayed for Inflammatory Metabolites (PGE2, LBT4), Inflammatory Metabolite Markers (5-HETE), and Pro-Resolving Lipid Mediator Markers 15-HETE, 12-HETE, 14-HDOHE, 18-HEPE, and 17-HDOHE. More specifically, analysis was performed by extraction using an Oasis HLB 96-well plate (Waters) according to manufacturer's directions.
(§4) Suitable Pro-Resolving Activators are ingredients that show an increase in cellular concentration of Pro-Resolving Lipid Mediator Markers 15-HETE, 12-HETE, 14-HDOHE, 18-HEPE, and 17-HDOHE alone or in combination, when cells exposed to an inflammation precipitating condition either before or after exposure to the active.

human neutrophils [2] = assay: Release of Pro-Resolving Lipid Mediator Markers (15-HETE, 12-HETE, 14-HDOHE, 18-HEPE, 17-HDOHE) from PMA/A23187-stimulated neutrophils, LC-MS/MS of supernatants; format: cell-based
Method: as §1, §2, §3, §4

`Oc1ccc(C=Cc2cc(O)cc(O)c2)cc1` [resveratrol] was tested, and the “decrease in Inflammatory Metabolites and Inflammatory Metabolite Markers (aggregate)” value (human neutrophils [1]; 0.1 ug/ml) was 45%, the “decrease in Inflammatory Metabolites and Inflammatory Metabolite Markers (aggregate)” value (human neutrophils [1]; 1 ug/ml) was 59% and the “decrease in Inflammatory Metabolites and Inflammatory Metabolite Markers (aggregate)” value (human neutrophils [1]; 10 ug/ml) was 106%. The “% change of Pro-Resolving Lipid Mediator Markers, in the aggregate, compared to control” value (from here on “% change”) (human neutrophils [2]; 0.1 ug/ml) was −27%, the “% change” value (human neutrophils [2]; 1 ug/ml) was −16% and the “% change” value (human neutrophils [2]; 10 ug/ml) was −10%.

For `O=C(O)c1ccccc1O` [salicylic acid], the “net decrease in cellular concentration of Inflammatory Metabolites and Inflammatory Metabolite Markers (aggregate)” value (shortened to “net decrease in cellular concentration”) (human neutrophils [1]; 0.33 μg/ml (first of range 0.33 to 33 μg/ml)) was 29%, the “decrease in cellular concentration of 5-HETE” value (“decrease … of 5-HETE” below) (human neutrophils [1]; 0.33 μg/ml) was 15% and the “decrease in cellular concentration of LTB4” value (“decrease … of LTB4” below) (human neutrophils [1]; 0.33 μg/ml) was 1%. For the same compound, the “decrease in cellular concentration of PGE2” value (from here on “decrease … of PGE2”) (human neutrophils [1]; 0.33 μg/ml) was 19%, the “net decrease in cellular concentration” value (human neutrophils [1]; 3.3 μg/ml (second of range 0.33 to 33 μg/ml)) was 58% and the “decrease … of 5-HETE” value (human neutrophils [1]; 3.3 μg/ml) was 20%. For the same compound, the “decrease … of LTB4” value (human neutrophils [1]; 3.3 μg/ml) was 12%, the “decrease … of PGE2” value (human neutrophils [1]; 3.3 μg/ml) was 28% and the “net decrease in cellular concentration” value (human neutrophils [1]; 33 μg/ml (third of range 0.33 to 33 μg/ml)) was 46%. The “decrease … of 5-HETE” value (human neutrophils [1]; 33 μg/ml) was 27%, the “decrease … of LTB4” value (human neutrophils [1]; 33 μg/ml) was 17% and the “decrease … of PGE2” value (human neutrophils [1]; 33 μg/ml) was 19%. The “change in cellular concentration of Pro-Resolving Lipid Mediators (aggregate)” value (human neutrophils [2]; 0.33 μg/ml, vs control cells) was “small increase”, the “change in cellular concentration of all Pro-Resolving Lipid Mediator Markers in the aggregate” value (human neutrophils [2]; 3.3 μg/ml, vs control cells) was “decreased” and the “change in cellular concentration of Pro-Resolving Lipid Mediator Marker 15-HETE” value (human neutrophils [2]; 33 μg/ml, vs control cells) was “decrease”. The “change in cellular concentration of all Pro-Resolving Lipid Mediator Markers in the aggregate” value (human neutrophils [2]; 33 μg/ml, vs control cells) was “decreased”.

In the case of resveratrol salicylate, the “decrease in cellular concentration of Inflammatory Metabolites and Inflammation Metabolite Markers in the aggregate (better than control)” value (shortened to “decrease … (better than control)”) (human neutrophils [1]; 0.43 ug/ml) is reported as 87%, the “decrease … (better than control)” value (human neutrophils [1]; 4.3 ug/ml) is reported as 163% and the “decrease … (better than control)” value (human neutrophils [1]; 43 ug/ml) is reported as 257%. For the same compound, the “increase in cellular concentration of Pro-Resolving Lipid Mediator Markers, in the aggregate” value (“increase in cellular concentration” below) (human neutrophils [2]; 0.43 ug/ml) was “not being as effective”, the “increase in cellular concentration” value (human neutrophils [2]; 4.3 ug/ml) was 4% and the “increase in cellular concentration” value (human neutrophils [2]; 43 ug/ml) was 37%.
